In PMC8445441, “Elucidating the mechanism by which synthetic helper peptides sensitize Pseudomonas aeruginosa to multiple antibiotics” (PLoS Pathogens, 2021):
Read-outs that look alike come from different tables or passages of the source. One block for each compound: values may come before it.

What was measured:
P. aeruginosa HM-214 = settings: strain HM-214; antibiotic + D-11 (MICb/MICbc 128/4)
Procedure, shortened: (§1)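 After 18 h at 37 °C, the lowest concentration showing no visible growth was read as the MIC. Drugs were serially diluted two-fold in MHB and combined with an equal volume of inoculum (~1 × 10^6 CFU/mL), following CLSI broth microdilution; run in triplicate.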

P. aeruginosa AUMC-Pa-2 = settings: strain AUMC-Pa-2; antibiotic + D-11 (MICb/MICbc 64/4)
Procedure, shortened: as §1

P. aeruginosa AUMC-Pa-1 = settings: strain AUMC-Pa-1; antibiotic + D-11 (MICb/MICbc 128/4)
Procedure, shortened: as §1

P. aeruginosa PA14 = experiment: microbe, parasite or virus in culture; parameters: MICa: MIC of the antibiotic / MICac: MIC of the antibiotic in the combination: unit not given beside the values; settings: strain PA14; for FICI: antibiotic + D-11 (MICb/MICbc 128/4); for MICa: MIC of the antibiotic: antibiotic alone; for MICa: MIC of the antibiotic / MICac: MIC of the antibiotic in the combination: unit not given; for MICac: MIC of the antibiotic in the combination: with D-11 at MICbc 4
Procedure, shortened: as §1

P. aeruginosa NR-31040 = experiment: microbe, parasite or virus in culture; parameters: MICa: MIC of the antibiotic / MICac: MIC of the antibiotic in the combination: unit not given beside the values; settings: for FICI: antibiotic + D-11 (MICb/MICbc 128/4); for MICac: MIC of the antibiotic in the combination: with D-11 at MICbc 4
Procedure, shortened: as §1

P. aeruginosa NR-31041 = experiment: microbe, parasite or virus in culture; parameters: MICa: MIC of the antibiotic / MICac: MIC of the antibiotic in the combination: unit not given beside the values; settings: strain NR-31041; for FICI: antibiotic + D-11 (MICb/MICbc 64/4); for MICa: MIC of the antibiotic: antibiotic alone; for MICa: MIC of the antibiotic / MICac: MIC of the antibiotic in the combination: unit not given; for MICac: MIC of the antibiotic in the combination: with D-11 at MICbc 4
Procedure, shortened: as §1

P. aeruginosa ATCC27853 = experiment: microbe, parasite or virus in culture; parameters: MICa: MIC of the antibiotic / MICac: MIC of the antibiotic in the combination: unit not given beside the values; settings: strain ATCC27853; for FICI: antibiotic + D-11 (MICb/MICbc 32/4); for MICa: MIC of the antibiotic: antibiotic alone; for MICa: MIC of the antibiotic / MICac: MIC of the antibiotic in the combination: unit not given; for MICac: MIC of the antibiotic in the combination: with D-11 at MICbc 4
Procedure, shortened: as §1

P. aeruginosa PAK = experiment: microbe, parasite or virus in culture; parameters: MICa: MIC of the antibiotic / MICac: MIC of the antibiotic in the combination: unit not given beside the values; settings: strain PAK; for FICI: antibiotic + D-11 (MICb/MICbc 64/4); for MICa: MIC of the antibiotic: antibiotic alone; for MICa: MIC of the antibiotic / MICac: MIC of the antibiotic in the combination: unit not given; for MICac: MIC of the antibiotic in the combination: with D-11 at MICbc 4
Procedure, shortened: as §1

[1] = tested on: clinical P. aeruginosa isolates; experiment: microbe, parasite or virus in culture; settings: Pseudomonas aeruginosa, 18 h, antibiotic alone
Procedure, shortened: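 MIC is the lowest drug concentration showing no visible growth after 18 h at 37 °C. Two-fold dilutions in MHB were combined with an equal volume of bacterial suspension (about 1 × 10^6 CFU/mL), following CLSI broth microdilution, in triplicate.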

P. aeruginosa AUMC-Pa-5 = experiment: microbe, parasite or virus in culture; settings: strain AUMC-Pa-5; for FICI: antibiotic + D-11 (MICb/MICbc 64/4); for MICa: MIC of the antibiotic: antibiotic alone; for MICa: MIC of the antibiotic / MICac: MIC of the antibiotic in the combination: unit not given; for MICac: MIC of the antibiotic in the combination: with D-11 at MICbc 4
Procedure, shortened: as §1

P. aeruginosa AUMC-Pa-4 = experiment: microbe, parasite or virus in culture; settings: strain AUMC-Pa-4; for FICI: antibiotic + D-11 (MICb/MICbc 128/4); for MICa: MIC of the antibiotic: antibiotic alone; for MICa: MIC of the antibiotic / MICac: MIC of the antibiotic in the combination: unit not given; for MICac: MIC of the antibiotic in the combination: with D-11 at MICbc 4
Procedure, shortened: as §1

P. aeruginosa AUMC-Pa-6 = experiment: microbe, parasite or virus in culture; settings: strain AUMC-Pa-6; for FICI: antibiotic + D-11 (MICb/MICbc 64/4); for MICa: MIC of the antibiotic: antibiotic alone; for MICa: MIC of the antibiotic / MICac: MIC of the antibiotic in the combination: unit not given; for MICac: MIC of the antibiotic in the combination: with D-11 at MICbc 4
Procedure, shortened: as §1

P. aeruginosa PAO1 = experiment: microbe, parasite or virus in culture; settings: PAO1; for MIC: Pseudomonas aeruginosa, PAO1, 18 h; for FICI / MICac: the MIC for the antibiotic in the combination: S3 Table
Procedure, shortened: as §1

P. aeruginosa AUMC-Pa-3 = experiment: microbe, parasite or virus in culture; settings: strain AUMC-Pa-3; for FICI: antibiotic + D-11 (MICb/MICbc 128/4); for MICa: MIC of the antibiotic: antibiotic alone; for MICa: MIC of the antibiotic / MICac: MIC of the antibiotic in the combination: unit not given; for MICac: MIC of the antibiotic in the combination: with D-11 at MICbc 4
Procedure, shortened: as §1

[2] = strain NR-31040, unit not given
[3] = read-out: Antibiotic sensibility (MIC) of clinical P. aeruginosa isolate AUMC-Pa-1, strain AUMC-Pa-1
[4] = read-out: Antibiotic sensibility (MIC) of clinical P. aeruginosa isolate AUMC-Pa-2, strain AUMC-Pa-2
[5] = read-out: Antibiotic sensibility (MIC) of clinical P. aeruginosa isolate AUMC-Pa-3, strain AUMC-Pa-3
[6] = read-out: Antibiotic sensibility (MIC) of clinical P. aeruginosa isolate AUMC-Pa-4, strain AUMC-Pa-4
[7] = read-out: Antibiotic sensibility (MIC) of clinical P. aeruginosa isolate AUMC-Pa-5, strain AUMC-Pa-5
[8] = read-out: Antibiotic sensibility (MIC) of clinical P. aeruginosa isolate AUMC-Pa-6, strain AUMC-Pa-6
[9] = read-out: Antibiotic sensibility (MIC) of clinical P. aeruginosa isolate HM-214, strain HM-214
[10] = read-out: Antibiotic sensibility (MIC) of clinical P. aeruginosa isolate NR-31040, strain NR-31040
[11] = read-out: Antibiotic sensibility (MIC) of clinical P. aeruginosa isolate NR-31041, strain NR-31041

- MICa: MIC of the antibiotic (P. aeruginosa PA14): 16
- MICac: MIC of the antibiotic in the combination (P. aeruginosa PA14): 2
- MIC (P. aeruginosa NR-31040; Pseudomonas aeruginosa, NR31040, 18 h, read-out: MICa: MIC of the antibiotic): 16 µM
- MICac: MIC of the antibiotic in the combination (P. aeruginosa NR-31040; [2]): 0.5
- MICa: MIC of the antibiotic (P. aeruginosa NR-31041): 16
- MICac: MIC of the antibiotic in the combination (P. aeruginosa NR-31041): 2
- MICa: MIC of the antibiotic (P. aeruginosa ATCC27853): 16
- MICac: MIC of the antibiotic in the combination (P. aeruginosa ATCC27853): 1
- MICa: MIC of the antibiotic (P. aeruginosa PAK): 16
- MICac: MIC of the antibiotic in the combination (P. aeruginosa PAK): 1
- MIC [1, 3]: 32 µM
- MIC [1, 4]: 8 µM
- MIC [1, 5]: 16 µM
- MIC [1, 6]: 16 µM
- MIC [1, 7]: 16 µM
- MIC [1, 8]: 16 µM
- MIC [1, 9]: 16 µM
- MIC [1, 10]: 16 µM
- MIC [1, 11]: 16 µM
- MICa: MIC of the antibiotic (P. aeruginosa AUMC-Pa-5): 16/16
- MICac: MIC of the antibiotic in the combination (P. aeruginosa AUMC-Pa-5): 16/16
- MICa: MIC of the antibiotic (P. aeruginosa AUMC-Pa-4): 16
- MICac: MIC of the antibiotic in the combination (P. aeruginosa AUMC-Pa-4): 2
- MICa: MIC of the antibiotic (P. aeruginosa AUMC-Pa-6): 16
- MICac: MIC of the antibiotic in the combination (P. aeruginosa AUMC-Pa-6): 4
- MIC (P. aeruginosa PAO1; read-out: MICa: the MIC of antibiotics, S3 Table, antibiotic alone): 16 µM
- MICac: the MIC for the antibiotic in the combination (P. aeruginosa PAO1; with 2 μM D-11): 0.5 µM
- MICac: the MIC for the antibiotic in the combination (P. aeruginosa PAO1; with 4 μM D-11): 0.25 µM
- MICa: MIC of the antibiotic (P. aeruginosa AUMC-Pa-3): 16
- MICac: MIC of the antibiotic in the combination (P. aeruginosa AUMC-Pa-3): 2
Compound: CN(C)c1ccc(O)c2c1C[C@H]1C[C@H]3[C@H](N(C)C)C(O)=C(C(N)=O)C(=O)[C@@]3(O)C(O)=C1C2=O [Minocycline]
- FICI (P. aeruginosa HM-214): 0.094
- FICI (P. aeruginosa AUMC-Pa-2): 0.313
- FICI (P. aeruginosa AUMC-Pa-1): 0.094
- FICI (P. aeruginosa PA14): 0.156
- FICI (P. aeruginosa NR-31040; strain NR-31040): 0.063
- FICI (P. aeruginosa NR-31041): 0.188
- FICI (P. aeruginosa ATCC27853): 0.188
- FICI (P. aeruginosa PAK): 0.125
- FICI (P. aeruginosa AUMC-Pa-5): 1.063
- FICI (P. aeruginosa AUMC-Pa-4): 0.156
- FICI (P. aeruginosa AUMC-Pa-6): 0.313
- FICI (P. aeruginosa PAO1; antibiotic + 2 μM D-11): 0.094
- FICI (P. aeruginosa PAO1; antibiotic + 4 μM D-11): 0.141
- FICI (P. aeruginosa AUMC-Pa-3): 0.156

- MICa: MIC of the antibiotic (P. aeruginosa PA14): 64
- MICac: MIC of the antibiotic in the combination (P. aeruginosa PA14): 16
- MICa: MIC of the antibiotic (P. aeruginosa NR-31040; strain NR-31040, antibiotic alone, unit not given): 128
- MICac: MIC of the antibiotic in the combination (P. aeruginosa NR-31040; [2]): 64
- MICa: MIC of the antibiotic (P. aeruginosa NR-31041): 128
- MICac: MIC of the antibiotic in the combination (P. aeruginosa NR-31041): 16
- MICa: MIC of the antibiotic (P. aeruginosa ATCC27853): 64
- MICac: MIC of the antibiotic in the combination (P. aeruginosa ATCC27853): 8
- MICa: MIC of the antibiotic (P. aeruginosa PAK): 64
- MICac: MIC of the antibiotic in the combination (P. aeruginosa PAK): 16
- MIC [1, 3]: 128 µM
- MIC [1, 4]: 64 µM
- MIC [1, 5]: 64 µM
- MIC [1, 6]: 64 µM
- MIC [1, 7]: 64 µM
- MIC [1, 8]: 64 µM
- MIC [1, 9]: 128 µM
- MIC [1, 10]: 128 µM
- MIC [1, 11]: 128 µM
- MICa: MIC of the antibiotic (P. aeruginosa AUMC-Pa-5): 64
- MICac: MIC of the antibiotic in the combination (P. aeruginosa AUMC-Pa-5): 32
- MICa: MIC of the antibiotic (P. aeruginosa AUMC-Pa-4): 64
- MICac: MIC of the antibiotic in the combination (P. aeruginosa AUMC-Pa-4): 32
- MICa: MIC of the antibiotic (P. aeruginosa AUMC-Pa-6): 64
- MICac: MIC of the antibiotic in the combination (P. aeruginosa AUMC-Pa-6): 32
- MIC (P. aeruginosa PAO1; read-out: MICa: the MIC of antibiotics, S1 Table, macrolide alone): 64 µM
- MICa: MIC of the antibiotic (P. aeruginosa AUMC-Pa-3): 64
- MICac: MIC of the antibiotic in the combination (P. aeruginosa AUMC-Pa-3): 2
Compound: CC[C@H]1OC(=O)[C@H](C)C(=O)[C@H](C)[C@@H](O[C@@H]2O[C@H](C)C[C@H](N(C)C)[C@H]2O)[C@](C)(OC)C[C@@H](C)C(=O)[C@H](C)[C@H]2N(CCCCn3cnc(-c4cccnc4)c3)C(=O)O[C@]12C [Telithromycin]
- FICI (P. aeruginosa HM-214): 0.156
- FICI (P. aeruginosa AUMC-Pa-2): 0.313
- FICI (P. aeruginosa AUMC-Pa-1): 0.156
- FICI (P. aeruginosa PA14): 0.281
- FICI (P. aeruginosa NR-31040; strain NR-31040): 0.531
- FICI (P. aeruginosa NR-31041): 0.188
- FICI (P. aeruginosa ATCC27853): 0.250
- FICI (P. aeruginosa PAK): 0.313
- FICI (P. aeruginosa AUMC-Pa-5): 0.563
- FICI (P. aeruginosa AUMC-Pa-4): 0.531
- FICI (P. aeruginosa AUMC-Pa-6): 0.563
- FICI (P. aeruginosa AUMC-Pa-3): 0.063
